# According to PubChem BioAssay (NCI):
#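 Dose response: 5 concentrations. Exposure: 48 h. Format: 96-well plates. Endpoint: linear interpolation; highest concentration if not reached. TGI marks complete inhibition of growth.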 Where a SMILES comes first, the peptide text is derived from it. Bridges are numbered along the chain shown (N, C = ends). [ ]: non-standard residue; d: D form. The star is where a group is joined. Cbz = O=C(OCc1ccccc1)*; Aib = CC(C)(N)C(=O)O; OBn = c1ccc(CO*)cc1; βAla = NCCC(=O)O
# What was measured:
# Test in all cases: NCI anticancer screen, dose series, 48 h
# KM12 colon = test system: KM12 colon
# MCF7 breast = test system: MCF7 breast
# SNB-19 CNS = test system: SNB-19 CNS
# BT-549 breast = test system: BT-549 breast
# MDA-MB-435 = test system: MDA-MB-435
# RPMI-8226 leukemia = test system: RPMI-8226 leukemia
# HCT-116 colon = test system: HCT-116 colon
# CCRF-CEM leukemia = test system: CCRF-CEM leukemia
# SK-MEL-2 melanoma = test system: SK-MEL-2 melanoma
# MDA-MB-231 breast = test system: MDA-MB-231 breast
# MDA-N = test system: MDA-N
# LOX IMVI melanoma = test system: LOX IMVI melanoma
# HOP-92 NSCLC = test system: HOP-92 NSCLC
# SNB-75 CNS = test system: SNB-75 CNS
# HOP-62 NSCLC = test system: HOP-62 NSCLC
# U251 CNS = test system: U251 CNS
# COLO 205 colon = test system: COLO 205 colon
# NCI-H522 lung = test system: NCI-H522 lung
# HCC-2998 colon = test system: HCC-2998 colon
SMILES,TGI (KM12 colon),TGI (MCF7 breast),TGI (SNB-19 CNS),TGI (BT-549 breast),TGI (MDA-MB-435),TGI (RPMI-8226 leukemia),TGI (HCT-116 colon),TGI (CCRF-CEM leukemia),TGI (SK-MEL-2 melanoma),TGI (MDA-MB-231 breast),TGI (MDA-N),TGI (LOX IMVI melanoma),TGI (HOP-92 NSCLC),TGI (SNB-75 CNS),TGI (HOP-62 NSCLC),TGI (U251 CNS),TGI (COLO 205 colon),TGI (NCI-H522 lung),TGI (HCC-2998 colon)
CC(C(=O)N1c2ccccc2Sc2ccccc21)N1c2ccccc2Sc2ccccc21 (configuration not stated),> 100 µM,> 100 µM,> 100 µM,> 100 µM,> 100 µM,> 100 µM,> 100 µM,> 100 µM,> 100 µM,> 100 µM,> 100 µM,> 100 µM,> 100 µM,> 100 µM,> 100 µM,> 100 µM,> 100 µM,,
O=C(c1ccc(Cl)cc1Cl)N(C(=O)N1CCCCC1)c1ccccc1,> 100 µM,> 100 µM,> 100 µM,> 100 µM,> 100 µM,> 100 µM,> 100 µM,> 100 µM,> 100 µM,> 100 µM,> 100 µM,> 100 µM,,,,> 100 µM,> 100 µM,,
CCC1c2[nH]c3ccccc3c2C[C@H]2C(=O)NC(CCC(=O)OC(C)(C)C)C(=O)N12 (some centres not stated),> 100 µM,> 100 µM,> 100 µM,> 100 µM,> 100 µM,97.9 µM,> 100 µM,,> 100 µM,> 100 µM,> 100 µM,> 100 µM,94.9 µM,,> 100 µM,> 100 µM,72.3 µM,> 100 µM,
O=C(CC(=O)N(C(=O)c1ccccc1)c1ccc(Cl)cc1)N/N=C\c1cc(N=Nc2ccccc2Cl)ccc1O,> 100 µM,> 100 µM,94.2 µM,> 100 µM,> 100 µM,> 100 µM,> 100 µM,51.4 µM,,> 100 µM,> 100 µM,> 100 µM,59.6 µM,36.6 µM,> 100 µM,> 100 µM,> 100 µM,,> 100 µM
NC(N)=N/N=C/c1c(Cl)nc2sccn12,37.4 µM,73.6 µM,> 100 µM,> 100 µM,> 100 µM,53.1 µM,31.7 µM,73 µM,,> 100 µM,> 100 µM,39.6 µM,70.6 µM,> 100 µM,66.8 µM,> 100 µM,33.5 µM,84 µM,34 µM
O=C(Nc1ccc2nc(-c3ccccc3)cn2c1)Oc1ccccc1,> 100 µM,> 100 µM,> 100 µM,> 100 µM,47.5 µM,,> 100 µM,> 100 µM,> 100 µM,> 100 µM,41.9 µM,> 100 µM,> 100 µM,13.1 µM,> 100 µM,> 100 µM,> 100 µM,90.2 µM,> 100 µM
CC1(C)NC(=O)C(NC(=O)C(CC(=O)OCc2ccccc2)NC(=O)OCc2ccccc2)CCCCNC(=O)CCNC1=O (configuration not stated) (Cbz-D(OBn)K[Aib][βAla]; lactam 2-C; configuration not given here),> 100 µM,> 100 µM,> 100 µM,> 100 µM,> 100 µM,> 100 µM,> 100 µM,,,> 100 µM,> 100 µM,> 100 µM,> 100 µM,> 100 µM,> 100 µM,> 100 µM,> 100 µM,> 100 µM,> 100 µM
